Legend:
Conditions in all cases: 72 h
KCL-22 [1] = test system: KCL-22
In short: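 Fifteen myeloid leukaemia lines in RPMI 1640 were treated for 72 h at 37 °C and 5% CO2 with five tenfold doses from 1 to 10,000 nM, in duplicate. ATP luminescence was normalised to vehicle and to a positive control at 10 µM, then fitted with a four-parameter log-logistic model. The IC50 came from these fits.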

HL-60 [2] = assay: cell viability (% survival relative to DMSO control); higher = less cytotoxic
In short: (§1)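 Four-parameter log-logistic fits in drc and PharmacoGx supplied area under the curve where it is given. Underlying viability came from CellTiter-Glo, normalised to DMSO and proteasome-inhibitor wells, with the proteasome inhibitor at 10 μM. HL-60 cells in RPMI 1640 plus 10% FBS had been rescreened against the full library at five tenfold concentrations of 1–10,000 nM, in duplicate on 384-well plates, with DMSO or 100 nM of one of three metabolic inhibitors, for 72 h at 37 °C, 5% CO2.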

BV-173 = assay: cell viability (% survival relative to DMSO control, bortezomib = 0%); higher = less cytotoxic
In short: (§2)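 After 72 h at 37 °C with 5% CO2, cell viability in 384-well plates was measured by CellTiter-Glo luminescence. The plates held compounds pre-printed at 1, 10, 100, 1000 or 10000 nM in duplicate, and cells from 10 AML and 5 CML lines seeded at densities titrated to linear growth. Percent survival is the duplicate mean, normalised to vehicle as 100% and a 10 µM positive control as 0%.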

HEL = assay: as above
In short: as §2

HL-60 [3] = assay: as above
In short: as §2

K-562 = assay: as above
In short: as §2

KCL-22 [4] = assay: as above
In short: as §2

KG-1 = assay: as above
In short: as §2

KU-812 = assay: as above
In short: as §2

LAMA-84 = assay: as above
In short: as §2

ML-2 = assay: as above
In short: as §2

MOLM-13 = assay: as above
In short: as §2

MV4-11 = assay: as above
In short: as §2

Mono-Mac-6 = assay: as above
In short: as §2

NOMO-1 = assay: as above
In short: as §2

SHI-1 = assay: as above
In short: as §2

THP-1 = assay: as above
In short: as §2

HL-60 [5] = assay: area under dose-response curve (viability, 1 nM-10 uM) (fraction (0-1)); higher = more sensitive
In short: as §1

N[C@@H](CCC(=O)N[C@@H](CS)C(=O)NCC(=O)O)C(=O)O [Glutathione]
Conditions	IC50 (cell viability) [µM]
KCL-22 [1]	> 10

cell viability [%], HL-60 [2]
Conditions	0.001 µM	0.01 µM	0.1 µM	1 µM	10 µM
co-treatment: AZD3965 100 nM	99.7	98.74	99.1	102	99.8
co-treatment: DMSO vehicle	101	99.78	99.69	98.63	102.2
co-treatment: GSK2194069 100 nM	96.2	100.3	95.1	101	100.27
co-treatment: pictilisib 100 nM	96.6	96.4	86.3	96.3	106

Conditions	area under dose-response curve, co-treatment: AZD3965 100 nM	area under dose-response curve, co-treatment: DMSO vehicle	area under dose-response curve, co-treatment: GSK2194069 100 nM	area under dose-response curve, co-treatment: pictilisib 100 nM	cell viability, 1 nM [%]	cell viability, 10 nM [%]	cell viability, 100 nM [%]	cell viability, 1000 nM [%]	cell viability, 10000 nM [%]
BV-173	–	–	–	–	102	99.4	94.4	101	91.9
HEL	–	–	–	–	106	95.7	96.1	94.2	111
HL-60 [3]	–	–	–	–	77.8	94.8	98.7	70.5	105
HL-60 [5]	< 0.0301	< 0.0301	< 0.0301	< 0.0301	–	–	–	–	–
K-562	–	–	–	–	94.4	106	92.2	93.6	98.7
KCL-22 [4]	–	–	–	–	101	110	91.4	95.6	107
KG-1	–	–	–	–	106	101	111	95.7	110
KU-812	–	–	–	–	105	110	108	96	96.5
LAMA-84	–	–	–	–	100	98.1	97.6	98.1	104
ML-2	–	–	–	–	93.2	106	103	93	104
MOLM-13	–	–	–	–	111	114	91.4	92.5	92.1
MV4-11	–	–	–	–	106	99.2	107	80.9	106
Mono-Mac-6	–	–	–	–	96.2	89.5	84.9	103	89.9
NOMO-1	–	–	–	–	98.9	105	91.1	94.2	106
SHI-1	–	–	–	–	99.3	106	106	97.5	95.3
THP-1	–	–	–	–	100	102	95.4	105	105

CC(C)(F)C[C@H](N[C@@H](c1ccc(-c2ccc(S(C)(=O)=O)cc2)cc1)C(F)(F)F)C(=O)NC1(C#N)CC1 [Odanacatib]
Conditions	IC50 (cell viability) [µM]
KCL-22 [1]	> 10

cell viability [%], HL-60 [2]
Conditions	0.001 µM	0.01 µM	0.1 µM	1 µM	10 µM
co-treatment: AZD3965 100 nM	99.32	95.1	102	96.26	101
co-treatment: DMSO vehicle	95.8	98.4	100	95	97.6
co-treatment: GSK2194069 100 nM	80.8	89.4	97.1	90	89.3
co-treatment: pictilisib 100 nM	66.7	112	94.9	96.43	90

Conditions	area under dose-response curve, co-treatment: AZD3965 100 nM	area under dose-response curve, co-treatment: DMSO vehicle	area under dose-response curve, co-treatment: GSK2194069 100 nM	area under dose-response curve, co-treatment: pictilisib 100 nM	cell viability, 1 nM [%]	cell viability, 10 nM [%]	cell viability, 100 nM [%]	cell viability, 1000 nM [%]	cell viability, 10000 nM [%]
BV-173	–	–	–	–	85.1	104	101	88.7	106
HEL	–	–	–	–	104	107	99.9	92.7	107
HL-60 [3]	–	–	–	–	143	105	114	118	83.3
HL-60 [5]	< 0.0301	< 0.0301	< 0.0301	< 0.0301	–	–	–	–	–
K-562	–	–	–	–	101	106	104	91.8	103
KCL-22 [4]	–	–	–	–	128	96.9	104	93.7	122
KG-1	–	–	–	–	103	99.6	95.6	107	103
KU-812	–	–	–	–	94.8	87.9	99.7	91.8	99.2
LAMA-84	–	–	–	–	104	103	106	89	102
ML-2	–	–	–	–	107	101	96.5	100	101
MOLM-13	–	–	–	–	128	99.5	108	96.4	117
MV4-11	–	–	–	–	109	105	111	97.9	112
Mono-Mac-6	–	–	–	–	96.4	101	101	99.2	85.5
NOMO-1	–	–	–	–	99.6	100	108	102	100
SHI-1	–	–	–	–	109	107	99.9	98.5	117
THP-1	–	–	–	–	99.2	99.6	100	94.9	95.7
